Read-outs that look alike come from different tables or passages of the source.

For orientation: IC50 means the point on the concentration scale where inhibition reaches its midpoint.

The target in the test is T1, GBA2 (Homo sapiens, UniProt Q9HCG7).
T1 sequence (Q9HCG7 1-927): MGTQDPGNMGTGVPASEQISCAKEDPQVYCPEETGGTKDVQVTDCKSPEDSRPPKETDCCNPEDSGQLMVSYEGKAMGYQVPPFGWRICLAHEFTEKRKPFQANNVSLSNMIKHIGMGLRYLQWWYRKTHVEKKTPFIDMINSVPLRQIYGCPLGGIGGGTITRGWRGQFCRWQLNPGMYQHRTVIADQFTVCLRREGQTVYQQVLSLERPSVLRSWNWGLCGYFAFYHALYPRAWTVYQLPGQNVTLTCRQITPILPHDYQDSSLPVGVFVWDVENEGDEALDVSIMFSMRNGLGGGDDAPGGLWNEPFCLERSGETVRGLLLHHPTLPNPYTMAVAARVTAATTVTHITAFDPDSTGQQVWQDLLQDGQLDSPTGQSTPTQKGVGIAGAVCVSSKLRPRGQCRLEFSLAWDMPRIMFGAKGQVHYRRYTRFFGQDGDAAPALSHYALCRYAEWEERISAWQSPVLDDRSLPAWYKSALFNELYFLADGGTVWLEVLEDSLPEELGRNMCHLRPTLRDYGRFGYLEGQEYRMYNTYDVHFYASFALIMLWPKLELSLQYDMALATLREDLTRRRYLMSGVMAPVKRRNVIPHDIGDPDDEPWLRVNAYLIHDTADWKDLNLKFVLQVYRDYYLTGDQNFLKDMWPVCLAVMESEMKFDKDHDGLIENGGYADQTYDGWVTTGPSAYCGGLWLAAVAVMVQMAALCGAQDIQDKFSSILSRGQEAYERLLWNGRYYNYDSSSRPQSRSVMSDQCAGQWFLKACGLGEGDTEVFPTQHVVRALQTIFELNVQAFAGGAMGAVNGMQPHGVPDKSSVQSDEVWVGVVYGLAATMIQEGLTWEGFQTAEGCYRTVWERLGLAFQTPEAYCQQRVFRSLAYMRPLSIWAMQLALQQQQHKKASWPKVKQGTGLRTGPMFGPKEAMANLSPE
Put plainly: Determination of IC50 values for inhibition of GBA2 in cell lysate. It counts as biochemical. The arrangement: host or cells: HEK293T (lentiviral transduction, puromycin selection); used as cellular homogenate. The procedure, abridged:
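Homogenate of HEK293T cells stably overexpressing human GBA2 (0.083 mg/mL final), pretreated with 20 μM GCase inhibitor, preincubated 5 min at 37 °C with compound, then reacted 20 min with 250 μM 4-methylumbelliferyl-β-D-glucopyranoside at pH 5.5 (citrate-phosphate, 1% C10E6). Fluorescence read at 365/450 nm after alkaline stop; IC50 from log-inhibitor curve fit.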

The mark [1] stands for this setting: cellular homogenate of HEK293T cells overexpressing human GBA2, 250 μM 4-methylumbelliferone-β-D glucopyranoside, pH 5.5, 37° C., GCase inhibitor present, read-out: GBA2 IC50.

In the case of `C[C@@H]1[C@@H](O)[C@H](O)[C@@H](O)CN1C[C@@H]1CCN(c2cncnc2C(F)(F)F)C1` [Example 134, (2R,3R,4R,5S)-2-methyl-1-(((S)-1-(4-(trifluoromethyl)pyrimidin-5-yl)pyrrolidin-3-yl)methyl)piperidine-3,4,5-triol], the 50% inhibitory concentration (IC50) under setting [1] is below 100 nM.

`C[C@@H]1[C@@H](O)[C@H](O)[C@@H](O)CN1C[C@@H]1CCN(c2nc(C(F)(F)F)cs2)C1` [Example 135, (2R,3R,4R,5S)-2-methyl-1-(((S)-1-(4-(trifluoromethyl)thiazol-2-yl)pyrrolidin-3-yl)methyl)piperidine-3,4,5-triol]: under setting [1], the IC50 is below 100 nM.

On to `C[C@@H]1[C@@H](O)[C@H](O)[C@@H](O)CN1C[C@@H]1CCCN(c2cccc(C(F)(F)F)n2)C1` [Example 143, (2R,3R,4R,5S)-2-methyl-1-(((S)-1-(6-(trifluoromethyl)pyridin-2-yl)piperidin-3-yl)methyl)piperidine-3,4,5-triol], for which, under setting [1], the IC50 was below 100 nM.

In the case of `C[C@@H]1[C@@H](O)[C@H](O)[C@@H](O)CN1C[C@@H]1CCCN(c2nc(C(F)(F)F)cs2)C1` [Example 144, (2R,3R,4R,5S)-2-methyl-1-(((S)-1-(4-(trifluoromethyl)thiazol-2-yl)piperidin-3-yl)methyl)piperidine-3,4,5-triol], the IC50 under setting [1] lay within 100 to 1000 nM.

In the case of `CC(C)C1CCC(CN2C[C@H](O)[C@@H](O)[C@H](O)[C@H]2CF)CC1` (stereo partly drawn) [Example 145, (2S,3R,4R,5S)-2-(fluoromethyl)-1-((4-isopropylcyclohexyl)methyl)piperidine-3,4,5-triol], the IC50 under setting [1] is below 100 nM.

Regarding `CC(C)(C)C1CCC(CN2C[C@H](O)[C@@H](O)[C@H](O)[C@H]2CF)CC1` (stereo partly drawn) [Example 146, (2S,3R,4R,5S)-1-((4-(tert-butyl)cyclohexyl)methyl)-2-(fluoromethyl)piperidine-3,4,5-triol], the IC50 under setting [1] is below 100 nM.

For the molecule `O[C@H]1[C@H](O)[C@@H](O)CN(CCc2ccccc2)[C@@H]1CF` [Example 148, (2S,3R,4R,5S)-2-(fluoromethyl)-1-phenethylpiperidine-3,4,5-triol], the IC50 lay within 100 to 1000 nM.

As for `O[C@H]1[C@H](O)[C@@H](O)CN(CCc2ccccc2F)[C@@H]1CF` [Example 149, (2S,3R,4R,5S)-2-(fluoromethyl)-1-(2-fluorophenethyl)piperidine-3,4,5-triol], the IC50 fell in the range of 100 to 1000 nM.

In the case of `CC(C)c1cc(F)c(CCN2C[C@H](O)[C@@H](O)[C@H](O)[C@H]2CF)c(F)c1` [Example 150, (2S,3R,4R,5S)-1-(2,6-difluoro-4-isopropylphenethyl)-2-(fluoromethyl)piperidine-3,4,5-triol], the IC50 is below 100 nM.

Consider `O[C@H]1[C@H](O)[C@@H](O)CN(CCc2ccc3c(c2)OCCO3)[C@@H]1CF` [Example 153, (2S,3R,4R,5S)-1-(2-(2,3-dihydrobenzo[b][1,4]dioxin-6-yl)ethyl)-2-(fluoromethyl)piperidine-3,4,5-triol], for which the IC50 is below 100 nM.

On to `O[C@H]1[C@H](O)[C@@H](O)CN(CC2CCN(c3ccccc3)CC2)[C@@H]1CF` [Example 154, (2S,3R,4R,5S)-2-(fluoromethyl)-1-((1-phenylpiperidin-4-yl)methyl)piperidine-3,4,5-triol], for which, under setting [1], the IC50 was below 100 nM.

Consider `O[C@H]1[C@H](O)[C@@H](O)CN(CC2CCN(c3ccc(C(F)(F)F)cc3)CC2)[C@@H]1CF` [Example 155, (2S,3R,4R,5S)-2-(fluoromethyl)-1-((1-(4-(trifluoromethyl)phenyl)piperidin-4-yl)methyl)piperidine-3,4,5-triol], for which the IC50 under setting [1] was below 100 nM.

With `O[C@H]1[C@H](O)[C@@H](O)CN(CCc2ccccc2)[C@@H]1C(F)F` [Example 156, (2S,3R,4R,5S)-2-(difluoromethyl)-1-phenethylpiperidine-3,4,5-triol], the IC50 under setting [1] was 1000 to 25000 nM.

As to `C[C@H]1[C@@H](O)[C@H](O)[C@@H](O)CN1CCc1ccccc1F` [Example 157, (2S,3R,4R,5S)-1-(2-fluorophenethyl)-2-methylpiperidine-3,4,5-triol], the IC50 fell in the range of 1000 to 25000 nM.

Source of the values: patent publication US12612380B2, “Non-lysosomal glucosylceramidase inhibitors and uses thereof” (ALECTOS THERAPEUTICS INC., priority 2019, dated 2026).
